This passage reports IC50 results from patent US20260070945A1, “MACROCYCLIC IMMUNOMODULATORS” (Bristol-Myers Squibb Company, priority 2022, published 2026).

Where a SMILES comes first, the peptide text is derived from it. Bridges are numbered along the chain shown (N, C = ends). [ ]: non-standard residue; d: D form. The star is where a group is joined. ξ: configuration not given here. Phe(3-CF3) = N[C@@H](Cc1cccc(C(F)(F)F)c1)C(=O)O; Phe(4-CONH2) = NC(=O)c1ccc(C[C@H](N)C(=O)O)cc1; Phe(4-COOH) = N[C@@H](Cc1ccc(C(=O)O)cc1)C(=O)O; Bip = N[C@@H](Cc1ccc(-c2ccccc2)cc1)C(=O)O; Phe(3-F) = N[C@@H](Cc1cccc(F)c1)C(=O)O; Phe(3-Me) = Cc1cccc(C[C@H](N)C(=O)O)c1; NH(CH2)12COOH = O=C(O)CCCCCCCCCCCCN*; Val(3-OH) = CC(C)(O)[C@H](N)C(=O)O; hArg = N=C(N)NCCCC[C@H](N)C(=O)O; 4Pal = N[C@@H](Cc1ccncc1)C(=O)O; Cha = N[C@@H](CC1CCCCC1)C(=O)O; Cit = NC(=O)NCCC[C@H](N)C(=O)O; Ile(3ξ) = CCC(C)[C@H](N)C(=O)O; Thr(3ξ) = CC(O)[C@H](N)C(=O)O; 12Ado = NCCCCCCCCCCCC(=O)O; Carboxymethyl = O=C(O)C*; NMeA = CN[C@@H](C)C(=O)O; Orn = NCCC[C@H](N)C(=O)O; Aun = NCCCCCCCCCCC(=O)O; Dab = NCC[C@H](N)C(=O)O; Dap = NC[C@H](N)C(=O)O; AEEA = NCCOCCOCC(=O)O; Sar = CNCC(=O)O

T1 sequence (Q15116 25-288): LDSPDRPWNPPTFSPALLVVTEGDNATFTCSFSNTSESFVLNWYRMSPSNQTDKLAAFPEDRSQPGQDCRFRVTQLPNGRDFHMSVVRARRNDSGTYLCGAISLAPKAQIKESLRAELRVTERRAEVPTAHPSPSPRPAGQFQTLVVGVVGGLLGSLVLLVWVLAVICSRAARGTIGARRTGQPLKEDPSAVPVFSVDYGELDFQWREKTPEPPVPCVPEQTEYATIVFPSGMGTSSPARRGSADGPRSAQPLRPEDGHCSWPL

One assay has as its target T1, PD-1/PD-L1 interaction (PE-labeled human PD-L1-Ig binding to Jurkat cell line over-expressing human PD-1) (Homo sapiens, UniProt Q15116).
T1 construct: expressed in transfected cells; host or cells: Jurkat
Put plainly: Jurkat-PD-1 Cell Binding High-Content Screening Assay (CBA). The conditions noted are these: Jurkat-hPD-1 cells, PE-labeled PD-L1-Ig 20 nM final; read-out: Jurkat HPD1 PDL1 IC50. In outline: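 Compound is added first to the PD-1-expressing Jurkat cells and held 2 h at 37 °C in serum-containing DMEM. The fluorescent PD-L1 fusion follows at 20 nM final for 1 h. Fixed, Hoechst-stained cells are then imaged for bound label.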
Regarding `Cc1cccc(C[C@@H]2NC(=O)[C@H](CC(=O)O)NC(=O)[C@H](Cc3ccc(OCC(=O)O)cc3)NC(=O)[C@H](Cc3ccc(C(N)=O)cc3)NC(=O)CSC[C@@H](C(=O)N[C@H](CC(N)=O)C(=O)NCCOCCOCC(=O)NCCCCCCCCCCC(=O)O)NC(=O)[C@H](CO)NC(=O)[C@H](C(C)C)NC(=O)[C@H](CC3CCCCC3)NC(=O)[C@H](CCN)NC(=O)[C@@H](CC(C)C)NC(=O)[C@H](C)N(C)C(=O)[C@H](Cc3ccc(O)cc3)NC(=O)[C@H](Cc3ccc(-c4ccccc4)cc3)NC(=O)[C@H](Cc3ccc(OCC(=O)O)cc3)NC2=O)c1` [Example 2423] ({CH2CO}-[Phe(4-CONH2)]Y(Carboxymethyl)D[Phe(3-Me)]Y(Carboxymethyl)[Bip]Y[NMeA][dL][Dab][Cha]VSC[dN][AEEA][Aun]-OH; thioether N-14), the 50% inhibitory concentration (IC50) is 14.2 nM.

With `CCC(C)[C@@H]1NC(=O)[C@H](Cc2ccc(-c3ccccc3)cc2)NC(=O)[C@H](C(C)C)NC(=O)[C@H](Cc2c[nH]c3ccccc23)NC(=O)[C@H](CC(=O)O)NC(=O)[C@H](Cc2ccc(OCC(=O)O)cc2)NC(=O)[C@H](Cc2ccc(OCC(=O)O)cc2)NC(=O)CSC[C@@H](C(=O)N[C@H](CC(N)=O)C(=O)NCCCCCCCCCCC(=O)O)NC(=O)[C@H](CCCCN)NC(=O)[C@H](C(C)C)NC(=O)[C@H](CC2CCCCC2)NC(=O)[C@H](CCN)NC(=O)[C@@H](CC(C)C)NC(=O)[C@H](C)N(C)C1=O` (stereo partly drawn) [Example 2239] ({CH2CO}-Y(Carboxymethyl)Y(Carboxymethyl)DWV[Bip][Ile(3ξ)][NMeA][dL][Dab][Cha]VKC[dN][Aun]-OH; thioether N-14), the IC50 worked out at 6 nM.

With `CC(C)C[C@@H]1NC(=O)[C@H](Cc2c[nH]c3ccccc23)NC(=O)[C@H](CC(=O)O)NC(=O)[C@H](Cc2ccc(OCC(=O)O)cc2)NC(=O)[C@H](CCCCNC(=N)N)NC(=O)CSC[C@@H](C(=O)NCC(=O)NCCOCCOCC(=O)N[C@@H](CCCCN)C(=O)NCCCCCCCCCCC(=O)O)NC(=O)[C@H](CCCNC(N)=O)NC(=O)[C@H](C(C)C)NC(=O)[C@H](CC2CCCCC2)NC(=O)[C@H](CCN)NC(=O)[C@@H](CC(C)C)NC(=O)[C@H](C)N(C)C(=O)[C@H](C(C)C)NC(=O)[C@H](Cc2ccc(-c3ccccc3)cc2)NC1=O` [Example 2181] ({CH2CO}-[hArg]Y(Carboxymethyl)DWL[Bip]V[NMeA][dL][Dab][Cha]V[Cit]CG[AEEA]K[Aun]-OH; thioether N-14), the 50% inhibitory concentration (IC50) turned out to be 21.1 nM.

Consider `COC[C@@H]1NC(=O)CSC[C@@H](C(=O)N[C@@H](CCN)C(=O)NCCCCCCCCCCCCC(=O)O)NC(=O)[C@H](CCC(=O)O)NC(=O)[C@H](C(C)C)NC(=O)[C@H](CC2CCCCC2)NC(=O)[C@H](CCN)NC(=O)[C@@H](CC(C)C)NC(=O)[C@H](C)N(C)C(=O)[C@H](CCC(N)=O)NC(=O)[C@H](Cc2ccc(-c3ccccc3)cc2)NC(=O)[C@H](Cc2ccc(C(=O)O)cc2)NC(=O)[C@H](Cc2cccc(C(F)(F)F)c2)NC(=O)[C@H](CC(=O)O)NC(=O)[C@H](Cc2ccc(OCC(=O)O)cc2)NC1=O` [Example 1135] ({CH2CO}-S(Me)Y(Carboxymethyl)D[Phe(3-CF3)][Phe(4-COOH)][Bip]Q[NMeA][dL][Dab][Cha]VEC[Dab]-{NH(CH2)12COOH}; thioether N-14), for which the half-maximal inhibitory concentration (IC50) came to 12.5 nM.

In the case of `Cc1cccc(C[C@@H]2NC(=O)[C@H](CC(=O)O)NC(=O)[C@H](Cc3ccc(OCC(=O)O)cc3)NC(=O)[C@H](CN)NC(=O)CSC[C@@H](C(=O)NCCCCCCCCCCC(=O)O)NC(=O)[C@H](CCCN)NC(=O)[C@H](C(C)C)NC(=O)[C@H](CC3CCCCC3)NC(=O)[C@H](CCN)NC(=O)[C@@H](CC(C)C)NC(=O)[C@H](C)N(C)C(=O)[C@H](Cc3ccc(O)cc3)NC(=O)[C@H](Cc3ccc(-c4ccccc4)cc3)NC(=O)[C@H](Cc3ccc(O)cc3)NC2=O)c1` [Example 1318] ({CH2CO}-[Dap]Y(Carboxymethyl)D[Phe(3-Me)]Y[Bip]Y[NMeA][dL][Dab][Cha]V[Orn]C[Aun]-OH; thioether N-14), the IC50 stood at 59.8 nM.

For `Cc1cccc(C[C@@H]2NC(=O)[C@H](CC(=O)O)NC(=O)[C@H](Cc3ccc(OCC(=O)O)cc3)NC(=O)[C@H](CCN)NC(=O)CSC[C@@H](C(=O)N[C@@H](CCN)C(=O)NCCCCCCCCCCC(=O)O)NC(=O)[C@H](CO)NC(=O)[C@H](C(C)(C)O)NC(=O)[C@H](CC3CCCCC3)NC(=O)[C@H](CCN)NC(=O)[C@@H](CC(C)C)NC(=O)[C@H](C)N(C)C(=O)[C@H](Cc3ccc(OCC(=O)O)cc3)NC(=O)[C@H](Cc3ccc(-c4ccccc4)cc3)NC(=O)[C@H](Cc3cccc(F)c3)NC2=O)c1` [Example 1310] ({CH2CO}-[Dab]Y(Carboxymethyl)D[Phe(3-Me)][Phe(3-F)][Bip]Y(Carboxymethyl)[NMeA][dL][Dab][Cha][Val(3-OH)]SC[Dab][Aun]-OH; thioether N-14), the IC50 is 30.6 nM.

On to `CC(C)[C@@H]1NC(=O)[C@H](CC2CCCCC2)NC(=O)[C@H](CCN)NC(=O)CN(C)C(=O)[C@H](C)N(C)C(=O)[C@H](C(C)C)NC(=O)[C@H](Cc2ccc(-c3ccccc3)cc2)NC(=O)[C@H](C(C)C)NC(=O)[C@H](Cc2c[nH]c3ccccc23)NC(=O)[C@H](CC(=O)O)NC(=O)[C@H](Cc2ccncc2)NC(=O)[C@H](Cc2ccc(OCC(=O)O)cc2)NC(=O)CSC[C@@H](C(=O)N[C@@H](CCCCN)C(=O)NCCOCCOCC(=O)NCCCCCCCCCCC(=O)O)NC(=O)[C@H](CO)NC1=O` [Example 2102] ({CH2CO}-Y(Carboxymethyl)[4Pal]DWV[Bip]V[NMeA][Sar][Dab][Cha]VSCK[AEEA][Aun]-OH; thioether N-14), for which the half-inhibitory concentration (IC50) stood at 337 nM.

With `Cc1cccc(C[C@@H]2NC(=O)[C@H](CC(=O)O)NC(=O)[C@H](Cc3ccc(OCC(=O)O)cc3)NC(=O)[C@H](C(C)O)NC(=O)CSC[C@@H](C(=O)N[C@@H](CCCN)C(=O)N[C@@H](CO)C(=O)NCCCCCCCCCCCC(=O)O)NC(=O)[C@H](CO)NC(=O)[C@H](C(C)(C)O)NC(=O)[C@H](CC3CCCCC3)NC(=O)[C@H](CCN)NC(=O)[C@@H](CC(C)C)NC(=O)[C@H](C)N(C)C(=O)[C@H](CCCNC(N)=O)NC(=O)[C@H](Cc3ccc(-c4ccccc4)cc3)NC(=O)[C@H](C(C)C)NC2=O)c1` (stereo partly drawn) [Example 2394] ({CH2CO}-[Thr(3ξ)]Y(Carboxymethyl)D[Phe(3-Me)]V[Bip][Cit][NMeA][dL][Dab][Cha][Val(3-OH)]SC[Orn]S[12Ado]-OH; thioether N-14), the half-inhibitory concentration (IC50) turned out to be 15.7 nM.

In the case of `CC(C)C[C@@H]1NC(=O)[C@H](Cc2c[nH]c3ccccc23)NC(=O)[C@H](CC(=O)O)NC(=O)[C@H](Cc2ccncc2)NC(=O)[C@H](Cc2ccc(OCC(=O)O)cc2)NC(=O)CSC[C@@H](C(=O)N[C@@H](CCCCN)C(=O)NCCCCCCCCCCC(=O)O)NC(=O)[C@H](CN)NC(=O)[C@H](C(C)C)NC(=O)[C@H](CC2CCCCC2)NC(=O)[C@H](CCN)NC(=O)[C@@H](CC(C)C)NC(=O)[C@H](C)N(C)C(=O)[C@H](C(C)C)NC(=O)[C@H](Cc2ccc(-c3ccccc3)cc2)NC1=O` [Example 1349] ({CH2CO}-Y(Carboxymethyl)[4Pal]DWL[Bip]V[NMeA][dL][Dab][Cha]V[Dap]CK[Aun]-OH; thioether N-14), the IC50 was found to be 15.8 nM.

Staying with this assay, now noted: PE-labeled PD-L1-Ig 20 nM final, Jurkat-hPD-1 cells; read-out: Jurkat HPD1 PDL1 IC50.
`Cc1cccc(C[C@@H]2NC(=O)[C@H](CC(=O)O)NC(=O)[C@H](Cc3ccc(OCC(=O)O)cc3)NC(=O)[C@H](C(C)O)NC(=O)CSC[C@@H](C(=O)N[C@@H](CCN)C(=O)NCCOCCOCC(=O)NCCCCCCCCCCC(=O)O)NC(=O)[C@H](C(C)O)NC(=O)[C@H](C(C)(C)O)NC(=O)[C@H](CC3CCCCC3)NC(=O)[C@H](CCN)NC(=O)[C@@H](CC(C)C)NC(=O)[C@H](C)N(C)C(=O)[C@H](Cc3ccc(OCC(=O)O)cc3)NC(=O)[C@H](Cc3ccc(-c4ccccc4)cc3)NC(=O)[C@H](Cc3ccc(OCC(=O)O)cc3)NC2=O)c1` (stereo partly drawn) [Example 2468] ({CH2CO}-[Thr(3ξ)]Y(Carboxymethyl)D[Phe(3-Me)]Y(Carboxymethyl)[Bip]Y(Carboxymethyl)[NMeA][dL][Dab][Cha][Val(3-OH)][Thr(3ξ)]C[Dab][AEEA][Aun]-OH; thioether N-14): the concentration for half-maximal inhibition (IC50) stood at 22.3 nM.

On to `CC(C)C[C@@H]1NC(=O)[C@H](Cc2c[nH]c3ccccc23)NC(=O)[C@H](CC(=O)O)NC(=O)[C@H](Cc2ccc(OCC(=O)O)cc2)NC(=O)[C@H](Cc2ccc(OCC(=O)O)cc2)NC(=O)CSC[C@@H](C(=O)NCCOCCOCC(=O)NCCCCCCCCCCC(=O)O)NC(=O)[C@H](Cc2c[nH]cn2)NC(=O)[C@H](C(C)C)NC(=O)[C@H](CC2CCCCC2)NC(=O)[C@H](CCN)NC(=O)[C@@H](CC(C)C)NC(=O)[C@H](C)N(C)C(=O)[C@H](C(C)C)NC(=O)[C@H](Cc2ccc(-c3ccccc3)cc2)NC1=O` [Example 2442] ({CH2CO}-Y(Carboxymethyl)Y(Carboxymethyl)DWL[Bip]V[NMeA][dL][Dab][Cha]VHC[AEEA][Aun]-OH; thioether N-14), for which the concentration for half-maximal inhibition (IC50) came to 37.9 nM.

As for `Cc1cccc(C[C@@H]2NC(=O)[C@H](CC(=O)O)NC(=O)[C@H](Cc3ccc(OCC(=O)O)cc3)NC(=O)[C@H](Cc3ccncc3)NC(=O)CSC[C@@H](C(=O)N[C@@H](CCN)C(=O)NCCOCCOCC(=O)NCCOCCOCC(=O)NCCCCCCCCCCC(=O)O)NC(=O)[C@H](CCC(=O)O)NC(=O)[C@H](C(C)C)NC(=O)[C@H](CC3CCCCC3)NC(=O)[C@H](CCN)NC(=O)[C@@H](CC(C)C)NC(=O)[C@H](C)N(C)C(=O)[C@H](Cc3ccc(C(=O)O)cc3)NC(=O)[C@H](Cc3ccc(-c4ccccc4)cc3)NC(=O)[C@H](Cc3ccc(C(=O)O)cc3)NC2=O)c1` [Example 2501] ({CH2CO}-[4Pal]Y(Carboxymethyl)D[Phe(3-Me)][Phe(4-COOH)][Bip][Phe(4-COOH)][NMeA][dL][Dab][Cha]VEC[Dab][AEEA][AEEA][Aun]-OH; thioether N-14), the concentration for half-maximal inhibition (IC50) came to 253 nM.

What is called IC50 is the concentration at which inhibition is half-maximal.
